Measurements as given in patent US20220040129A1, “TREATMENT OF HYPERAMMONEMIA IN PATIENTS WITH RENAL INSUFFICIENCY” (RECORDATI S.p.A., priority 2019, published 2022).

Assays:
[1] = molecular target: T1, human OATP1B3 (Homo sapiens, UniProt Q9NPD5); experiment: In vitro transporter inhibition; format: in vitro ADME
T1 sequence (Q9NPD5 1-702): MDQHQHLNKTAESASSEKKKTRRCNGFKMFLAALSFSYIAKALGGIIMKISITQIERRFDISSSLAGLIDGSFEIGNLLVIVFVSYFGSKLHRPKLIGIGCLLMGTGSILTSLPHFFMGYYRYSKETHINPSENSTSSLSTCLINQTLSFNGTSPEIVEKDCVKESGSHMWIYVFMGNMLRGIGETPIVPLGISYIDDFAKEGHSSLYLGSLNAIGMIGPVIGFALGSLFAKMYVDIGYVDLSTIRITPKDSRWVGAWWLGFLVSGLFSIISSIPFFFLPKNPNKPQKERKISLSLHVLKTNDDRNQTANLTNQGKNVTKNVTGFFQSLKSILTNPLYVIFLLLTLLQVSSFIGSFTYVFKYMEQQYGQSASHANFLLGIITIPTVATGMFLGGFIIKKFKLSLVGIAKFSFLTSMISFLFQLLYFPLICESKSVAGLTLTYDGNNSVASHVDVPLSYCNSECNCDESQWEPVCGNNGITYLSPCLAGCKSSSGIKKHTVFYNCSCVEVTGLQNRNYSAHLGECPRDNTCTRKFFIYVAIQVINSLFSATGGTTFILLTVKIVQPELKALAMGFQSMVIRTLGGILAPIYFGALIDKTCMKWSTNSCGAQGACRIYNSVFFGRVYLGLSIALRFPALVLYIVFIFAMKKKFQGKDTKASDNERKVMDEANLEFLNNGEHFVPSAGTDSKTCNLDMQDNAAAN
Method: (§1) In vitro drug interaction studies were performed with human transporters. […] Potential interactions with inhibitors of the OAT1 transporter were considered clinically irrelevant.

[2] = molecular target: T2, human BCRP (Homo sapiens, UniProt Q9UNQ0); experiment: In vitro transporter inhibition; format: in vitro ADME
T2 sequence (Q9UNQ0 1-655): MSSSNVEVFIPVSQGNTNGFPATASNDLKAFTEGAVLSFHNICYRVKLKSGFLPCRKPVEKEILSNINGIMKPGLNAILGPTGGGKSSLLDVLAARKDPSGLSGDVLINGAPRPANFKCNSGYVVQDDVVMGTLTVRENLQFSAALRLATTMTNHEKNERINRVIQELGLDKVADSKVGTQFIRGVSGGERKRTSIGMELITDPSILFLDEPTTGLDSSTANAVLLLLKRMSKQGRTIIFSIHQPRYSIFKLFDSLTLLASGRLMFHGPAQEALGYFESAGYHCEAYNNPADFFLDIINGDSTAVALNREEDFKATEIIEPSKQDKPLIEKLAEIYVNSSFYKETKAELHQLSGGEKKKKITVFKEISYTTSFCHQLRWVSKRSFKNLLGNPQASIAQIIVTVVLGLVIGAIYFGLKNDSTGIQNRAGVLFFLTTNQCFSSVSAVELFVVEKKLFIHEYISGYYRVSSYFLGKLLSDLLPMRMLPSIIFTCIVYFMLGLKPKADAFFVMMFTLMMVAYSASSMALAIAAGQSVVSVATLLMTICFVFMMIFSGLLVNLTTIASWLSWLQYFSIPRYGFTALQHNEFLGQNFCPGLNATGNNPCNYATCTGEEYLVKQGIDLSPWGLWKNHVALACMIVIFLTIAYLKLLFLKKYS
Method: as §1

Compound: NC(=O)N[C@@H](CCC(=O)O)C(=O)O [carglumic acid, N-carbamoyl-L-glutamic acid]
- Inhibition of human OATP1B3 uptake transporter [1]: not an inhibitor
- Inhibition of human BCRP efflux transporter [2]: not an inhibitor
